Twelve compounds from patent US12180193B2, “Accelerating fibrosarcoma protein degrading compounds and associated methods of use” (Arvinas Operations, Inc., priority 2020, dated 2024) can be followed below.

The target of assay [1] is T1, BRAF V600E (Homo sapiens, UniProt P15056, V600E).
T1 construct: expressed in transfected cells
Put plainly: Cellular assay of target protein degradation, T-Rex 293 cells stably transfected with HA-BRAF_V600E (HA immunofluorescence, high content imaging). It is filed as cell-based. The procedure, abridged: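 Doxycycline-induced (1 ng/mL) cells were treated 24 h at 37 °C with compound at 1 μM to 0.1 nM final in 0.1% DMSO. After fixation, permeabilization and blocking, anti-HA staining was imaged by high-content reading; DC50 and Dmax (% of control) were derived.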

For assay [2], the target named is T2, BRAF G466V (Homo sapiens, UniProt P15056, G466V).
T2 construct: expressed in transfected cells
Briefly: Cellular assay of target protein degradation, T-Rex 293 cells stably transfected with HA-BRAF G466V (HA immunofluorescence, high content imaging). It is filed as cell-based. The procedure, abridged: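 Cells expressing doxycycline-induced (0.75 ng/mL) HA-BRAF G466V were treated with compound at 30 nM to 3 pM in 0.1% DMSO for 24 hours at 37° C. After fixation and permeabilization, HA was immunostained and quantified by high content imaging to derive DC50 and Dmax.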

The mark [3] stands for this setting: half maximal degradation, T-Rex 293 HA-BRAF V600E; read-out: BRaf V600E DC50.
[4] abbreviates: maximum degradation observed, T-Rex 293 HA-BRAF V600E.
The mark [5] stands for this setting: half maximal degradation, T-Rex 293 HA-BRAF G466V; read-out: BRaf G466V DC50.
Setting [6] is: maximum degradation observed, T-Rex 293 HA-BRAF G466V.
[7] abbreviates: read-out: BRaf V600E DC50; half maximal degradation, T-Rex 293 HA-BRAF V600E.
Setting [8] is: read-out: BRaf G466V DC50; half maximal degradation, T-Rex 293 HA-BRAF G466V.

Where two headings read alike, the source gives them in different places. Where only a bound is given, the exact number is not on record here.

T1 sequence (P15056 whole entry V600E): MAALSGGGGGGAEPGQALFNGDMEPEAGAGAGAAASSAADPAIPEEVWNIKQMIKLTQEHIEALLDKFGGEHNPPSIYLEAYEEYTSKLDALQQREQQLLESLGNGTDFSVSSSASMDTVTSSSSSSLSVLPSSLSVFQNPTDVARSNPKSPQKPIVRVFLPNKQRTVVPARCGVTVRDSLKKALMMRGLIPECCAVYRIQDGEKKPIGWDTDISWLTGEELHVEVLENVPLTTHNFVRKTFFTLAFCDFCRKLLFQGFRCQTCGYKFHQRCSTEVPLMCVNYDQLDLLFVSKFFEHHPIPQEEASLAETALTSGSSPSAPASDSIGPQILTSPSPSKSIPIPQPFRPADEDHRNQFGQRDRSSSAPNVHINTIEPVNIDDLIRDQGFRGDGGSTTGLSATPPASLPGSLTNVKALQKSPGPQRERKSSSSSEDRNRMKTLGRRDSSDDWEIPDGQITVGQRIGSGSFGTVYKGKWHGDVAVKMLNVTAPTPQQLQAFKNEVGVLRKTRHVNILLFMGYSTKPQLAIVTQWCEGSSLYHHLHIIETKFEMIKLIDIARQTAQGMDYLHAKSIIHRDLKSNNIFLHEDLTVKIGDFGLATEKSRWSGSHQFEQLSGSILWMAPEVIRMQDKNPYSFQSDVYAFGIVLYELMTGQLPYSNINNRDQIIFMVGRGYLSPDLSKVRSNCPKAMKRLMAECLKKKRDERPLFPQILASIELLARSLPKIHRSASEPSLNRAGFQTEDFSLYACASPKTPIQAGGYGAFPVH
T2 sequence (P15056 whole entry G466V): as the sequence (P15056 whole entry V600E) above, with G466V, E600V counted along it

As to `O=C1CCC(N2Cc3cc(CCCN4CC5(C4)CN(c4ccc(-c6cnc7[nH]cc(C(=O)c8c(F)ccc(NS(=O)(=O)N9CC[C@@H](F)C9)c8F)c7c6)cc4F)C5)ccc3C2=O)C(=O)N1` (stereo partly drawn) [Compound 310, (3R)-N-(3-{5-[4-(6-{3-[2-(2,6-dioxopiperidin-3-yl)-1-oxo-2,3-dihydro-1H-isoindol-5-yl]propyl}-2,6-diazaspiro[3.3]heptan-2-yl)-3-fluorophenyl]-1H-pyrrolo[2,3-b]pyridine-3-carbonyl}-2,4-difluorophenyl)-3-fluoropyrrolidine-1-sulfonamide], the figures for the DC50 in assay [1] (setting [3]) and in assay [2] (setting [5]) were 5 to 50 nM and 1 to 10 nM, respectively. The greatest degradation seen (Dmax) (as a rule, the largest share of the target that was removed) is 35 to 70% in assay [1] (setting [4]) and over 70% in assay [2] (setting [6]).

In the case of `O=C1CCC(N2Cc3cc(N4CCC(CN5CC[C@@H]6[C@H](C5)CN6c5ccc(-c6cnc7[nH]cc(C(=O)c8c(F)ccc(NS(=O)(=O)N9CC[C@@H](F)C9)c8F)c7c6)cc5)CC4)ccc3C2=O)C(=O)N1` (stereo partly drawn) [Compound 311, (3R)-N-[3-(5-{4-[(1R,6R)-3-({1-[2-(2,6-dioxopiperidin-3-yl)-1-oxo-2,3-dihydro-1H-isoindol-5-yl]piperidin-4-yl}methyl)-3,7-diazabicyclo[4.2.0]octan-7-yl]phenyl}-1H-pyrrolo[2,3-b]pyridine-3-carbonyl)-2,4-difluorophenyl]-3-fluoropyrrolidine-1-sulfonamide], the DC50 (usually the midpoint of the concentration-degradation curve) was 5 to 50 nM in assay [1] (setting [3]) and 1 to 10 nM in assay [2] (setting [5]). Besides, the Dmax is 35 to 70% in assay [1] (setting [4]) and over 70% in assay [2] (setting [6]).

As for `O=C1CCC(N2Cc3cc(C4CCN(C[C@@H]5CCN(c6ccc(-c7cnc8[nH]cc(C(=O)c9c(F)ccc(NS(=O)(=O)N%10CC[C@@H](F)C%10)c9F)c8c7)cc6)C(=O)C5)CC4)ccc3C2=O)C(=O)N1` (stereo partly drawn) [Compound 312, (3R)-N-[3-(5-{4-[(4R)-4-({4-[2-(2,6-dioxopiperidin-3-yl)-1-oxo-2,3-dihydro-1H-isoindol-5-yl]piperidin-1-yl}methyl)-2-oxopiperidin-1-yl]phenyl}-1H-pyrrolo[2,3-b]pyridine-3-carbonyl)-2,4-difluorophenyl]-3-fluoropyrrolidine-1-sulfonamide], the DC50 is 50 to 500 nM in assay [1] (setting [3]) and 1 to 10 nM in assay [2] (setting [5]). The Dmax in assay [1] (setting [4]) and in assay [2] (setting [6]) was over 70% each time.

Take `O=C1CCC(N2Cc3cc(N4CCC(CN5CCN(c6ccc(-c7cnc8[nH]cc(C(=O)c9c(F)ccc(NS(=O)(=O)N%10CC[C@@H](F)C%10)c9F)c8c7)cc6)CC(F)(F)C5)CC4)ccc3C2=O)C(=O)N1` (stereo partly drawn) [Compound 315, (3R)-N-{3-(5-{4-[4-({1-[2-(2,6-dioxopiperidin-3-yl)-1-oxo-2,3-dihydro-1H-isoindol-5-yl]piperidin-4-yl}methyl)-6,6-difluoro-1,4-diazepan-1-yl]phenyl}-1H-pyrrolo[2,3-b]pyridine-3-carbonyl)-2,4-difluorophenyl]-3-fluoropyrrolidine-1-sulfonamide]: the DC50 is over 500 nM in assay [1] (setting [3]) and over 30 nM in assay [2] (setting [5]).

On to `O=C1CCC(N2Cc3cc(N4CCC(CN5CC(C6(c7ccc(-c8cnc9[nH]cc(C(=O)c%10c(F)ccc(NS(=O)(=O)N%11CC[C@@H](F)C%11)c%10F)c9c8)cc7)CC6)C5)CC4)ccc3C2=O)C(=O)N1` (stereo partly drawn) [Compound 316, (3R)-N-{3-[5-(4-{1-[1-({1-[2-(2,6-dioxopiperidin-3-yl)-1-oxo-2,3-dihydro-1H-isoindol-5-yl]piperidin-4-yl}methyl)azetidin-3-yl]cyclopropyl}phenyl)-1H-pyrrolo[2,3-b]pyridine-3-carbonyl]-2,4-difluorophenyl}-3-fluoropyrrolidine-1-sulfonamide], for which the DC50 in assay [1] (setting [3]) lay in the range of 50 to 500 nM; in assay [2] (setting [5]) it was 1 to 10 nM. The Dmax in assay [1] (setting [4]) is under 35%; in assay [2] (setting [6]) it was over 70%.

For the compound `O=C1CCC(N2Cc3cc(N4CCN(CCCCc5ccc(-c6cnc7[nH]cc(C(=O)c8c(F)ccc(NS(=O)(=O)N9CC[C@@H](F)C9)c8F)c7c6)cc5)CC4)ccc3C2=O)C(=O)N1` (stereo partly drawn) [Compound 317, (3R)-N-(3-{5-[4-(4-{4-[2-(2,6-dioxopiperidin-3-yl)-1-oxo-2,3-dihydro-1H-isoindol-5-yl]piperazin-1-yl}butyl)phenyl]-1H-pyrrolo[2,3-b]pyridine-3-carbonyl}-2,4-difluorophenyl)-3-fluoropyrrolidine-1-sulfonamide], the DC50 in assay [1] (setting [3]) fell in the range of 50 to 500 nM; in assay [2] (setting [5]) it was 1 to 10 nM. For the same compound, the Dmax in assay [1] (setting [4]) was 35 to 70%; in assay [2] (setting [6]) it was over 70%.

Consider `O=C1CCC(N2Cc3cc(N4CCN(CCCCCc5ccc(-c6cnc7[nH]cc(C(=O)c8c(F)ccc(NS(=O)(=O)N9CC[C@@H](F)C9)c8F)c7c6)cc5)CC4)ccc3C2=O)C(=O)N1` (stereo partly drawn) [Compound 318, (3R)-N-(3-{5-[4-(5-{4-[2-(2,6-dioxopiperidin-3-yl)-1-oxo-2,3-dihydro-1H-isoindol-5-yl]piperazin-1-yl}penyl)phenyl]-1H-pyrrolo[2,3-b]pyridine-3-carbonyl}-2,4-difluorophenyl)-3-fluoropyrrolidine-1-sulfonamide], for which the DC50 in assay [1] (setting [3]) was 50 to 500 nM; in assay [2] (setting [5]), 10 to 30 nM. The Dmax in assay [1] (setting [4]) and in assay [2] (setting [6]) was 35 to 70% throughout.

Regarding `O=C1CCC(N2Cc3cc(C4CCN(CC5CC6(C5)CN(c5ccc(-c7cnc8[nH]cc(C(=O)c9c(F)ccc(NS(=O)(=O)N%10CC[C@@H](F)C%10)c9F)c8c7)cc5F)C6)CC4)ccc3C2=O)C(=O)N1` (stereo partly drawn) [Compound 319, (3R)-N-[3-(5-{4-[6-({4-[2-(2,6-dioxopiperidin-3-yl)-1-oxo-2,3-dihydro-1H-isoindol-5-yl]piperidin-1-yl}methyl)-2-azaspiro[3.3]heptan-2-yl]-3-fluorophenyl}-1H-pyrrolo[2,3-b]pyridine-3-carbonyl)-2,4-difluorophenyl]-3-fluoropyrrolidine-1-sulfonamide], the Dmax was 35 to 70% in assay [1] (setting [4]) and over 70% in assay [2] (setting [6]). Further, the DC50 in assay [1] (setting [7]) was 5 to 50 nM; in assay [2] (setting [8]) it was 1 to 10 nM.

As to `O=C1CCC(N2Cc3cc(N4CC(CN5CCN(C6(c7ncc(-c8cnc9[nH]cc(C(=O)c%10c(F)ccc(NS(=O)(=O)N%11CC[C@@H](F)C%11)c%10F)c9c8)cn7)CC6)CC5)C4)ccc3C2=O)C(=O)N1` (stereo partly drawn) [Compound 320, (3R)-N-{3-[5-(2-{1-[4-({1-[2-(2,6-dioxopiperidin-3-yl)-1-oxo-2,3-dihydro-1H-isoindol-5-yl]azetidin-3-yl}methyl)piperazin-1-yl]cyclopropyl}pyrimidin-5-yl)-1H-pyrrolo[2,3-b]pyridine-3-carbonyl]-2,4-difluorophenyl}-3-fluoropyrrolidine-1-sulfonamide], the DC50 in assay [1] (setting [3]) was in the range of 50 to 500 nM; in assay [2] (setting [5]), 1 to 10 nM. Further, the Dmax in assay [1] (setting [4]) and in assay [2] (setting [6]) was 35 to 70% each time.

Turning to `O=C1CCC(N2Cc3cc(CCCCN4CC5(C4)CN(c4ccc(-c6cnc7[nH]cc(C(=O)c8c(F)ccc(NS(=O)(=O)N9CC[C@@H](F)C9)c8F)c7c6)cc4)C5)ccc3C2=O)C(=O)N1` (stereo partly drawn) [Compound 321, (3R)-N-(3-{5-[4-(6-{4-[2-(2,6-dioxopiperidin-3-yl)-1-oxo-2,3-dihydro-1H-isoindol-5-yl]butyl}-2,6-diazaspiro[3.3]heptan-2-yl)phenyl]-1H-pyrrolo[2,3-b]pyridine-3-carbonyl}-2,4-difluorophenyl)-3-fluoropyrrolidine-1-sulfonamide], the DC50 was 5 to 50 nM in assay [1] (setting [3]) and 1 to 10 nM in assay [2] (setting [5]). For the same compound, the results for the Dmax in assay [1] (setting [4]) and in assay [2] (setting [6]) were 35 to 70% and over 70%, respectively.

Regarding `O=C1CCC(N2Cc3cc(N4CCC(CN5CCCN(c6ccc(-c7cnc8[nH]cc(C(=O)c9c(F)ccc(NS(=O)(=O)N%10CC[C@@H](F)C%10)c9F)c8c7)cc6)CC5)CC4)ccc3C2=O)C(=O)N1` (stereo partly drawn) [Compound 322, (3R)-N-[3-(5-{4-[4-({1-[2-(2,6-dioxopiperidin-3-yl)-1-oxo-2,3-dihydro-1H-isoindol-5-yl]piperidin-4-yl}methyl)-1,4-diazepan-1-yl]phenyl}-1H-pyrrolo[2,3-b]pyridine-3-carbonyl)-2,4-difluorophenyl]-3-fluoropyrrolidine-1-sulfonamide], the results for the Dmax in assay [1] (setting [4]) and in assay [2] (setting [6]) were under 35% and 35 to 70%, respectively. Further, the half-maximal degradation concentration (DC50) in assay [1] (setting [7]) was 50 to 500 nM; in assay [2] (setting [8]), 1 to 10 nM.

On to `O=C1CCC(N2C(=O)c3ccc(C4CCN(CC5CCN(c6ccc(-c7cnc8[nH]cc(C(=O)c9c(F)ccc(NS(=O)(=O)N%10CC[C@@H](F)C%10)c9F)c8c7)cc6)CC5)CC4)cc3C2=O)C(=O)N1` (stereo partly drawn) [Compound 323, (3R)-N-[3-(5-{4-[4-({4-[2-(2,6-dioxopiperidin-3-yl)-1,3-dioxo-2,3-dihydro-1H-isoindol-5-yl]piperidin-1-yl}methyl)piperidin-1-yl]phenyl}-1H-pyrrolo[2,3-b]pyridine-3-carbonyl)-2,4-difluorophenyl]-3-fluoropyrrolidine-1-sulfonamide], for which the DC50 in assay [1] (setting [3]) lay in the range of 50 to 500 nM; in assay [2] (setting [5]), 10 to 30 nM. Further, the values for the Dmax in assay [1] (setting [4]) and in assay [2] (setting [6]) were under 35% and 35 to 70%, respectively.
